Reference: EP4153181B1, “PHARMACEUTICAL COMPOSITIONS COMPRISING BICTEGRAVIR” (GILEAD SCIENCES, INC., priority 2020, dated 2021)

Columns and labels:
Conditions in all cases: IV administration, mean
[1] = Plasma pharmacokinetics of BIC after single SC injection of long acting formulations (and IV infusion) in dog; assay type: in vivo, beagle dog
Text: (§1) Pharmacokinetics (PK) following a single BIC SC injection of solution and suspension formulations was characterized in male Sprague-Dawley rat, beagle dog, and cynomolgus monkey. The BIC injectable solution and both suspension formulations display extended-release PK following SC administration in all examined species and support a potential monthly or less frequent dosing regimen. […] Table 1. BIC Plasma Pharmacokinetic Parameters Following a Single Subcutaneous (SC) or Intramuscular (IM) Administration
This study investigated the pharmacokinetics of three formulations of bictegravir (BIC) by subcutaneous administration to determine the potential to deliver a long acting (LA) pharmacokinetic (PK) profile. BIC was administered by a 30-min intravenous (IV) infusion at 0.5 or 1 mg/kg and by subcutaneous (SC) injection of three LA formulations (e.g., NMP solution, HPMC suspension, and PVP suspension) at 10 mg/kg or 100 mg fixed dose to Male Beagle Dogs. The concentrations of BIC in plasma were determined with a liquid chromatography-tandem mass spectrometry (LC-MS/MS) method.
At dosing, the animals weighed between 7.98 and 11.6 kg. The animals from the SC leg with the PVP suspension were not fasted. […]
The intravenous dose was administered as a 30-minute infusion via a saphenous vein. […] Individual dose was calculated based on body weights recorded on the day of dose administration. […]

[2] = Plasma pharmacokinetics of BIC after single SC injection of long acting formulations (and IV infusion) in rat; assay type: in vivo, male Sprague-Dawley rat
Text: as §1
This study investigated the pharmacokinetics of three formulations of bictegravir (BIC) by subcutaneous administration to determine the potential to deliver a long acting (LA) pharmacokinetic (PK) profile. […] The concentrations of BIC in plasma were determined with a liquid chromatography-tandem mass spectrometry (LC-MS/MS) method. […]
The intravenous dose was administered as a 30-minute infusion via a catheter implanted animals. […] Individual dose was calculated based on body weights recorded on the day of dose administration. […]
For estimation of pharmacokinetic parameters, concentrations reported as below the lower limit of quantification (BLQ) were assigned a value of zero if pre-dose and treated as missing thereafter. […]

[3] = Plasma pharmacokinetics of BIC after single SC or IM injection of long acting formulations in monkey; assay type: in vivo, cynomolgus monkey

- systemic elimination rate (ke1 = CL/Vss) [1]: ~ 0.302 h^-1
- systemic elimination rate (ke1 = CL/Vss) [2]: ~ 0.0162 h^-1
- systemic elimination rate (ke1 = CL/Vss) [3]: ~ 0.253 h^-1
SMILES: O=C(NCc1c(F)cc(F)cc1F)c1cn2c(c(O)c1=O)C(=O)N1[C@H]3CC[C@H](C3)O[C@@H]1C2 [BIC, (2R,5S,13aR)-8-hydroxy-7,9-dioxo-N-(2,4,6-trifluorobenzyl)-2,3,4,5,7,9,13,13a-octahydro-2,5-methanopyrido[1',2':4,5]pyrazino[2,1-b][1,3]oxazepine-10-carboxamide]
